Assay results taken from patent US6350879B1, “Benziso-N (L-histidine methylester)-thiazolone, process for the preparation thereof, and use thereof for RNA polymerase inhibition” (Council of Scientific and Industrial Research, priority 2000, dated 2002).

What was measured:
[1] = Stability at normal conditions; assay type: physicochemical
[2] = molecular target: E. coli RNA polymerase (Escherichia coli, UniProt P0A8T7); test: RNA polymerase inhibition, radioisotope (3H UTP) labelling transcription assay with calf thymus DNA; assay type: biochemical; conditions: 0.8 μM of 3 with 0.4 μM E. coli RNA polymerase, incubated 15 min, dialysed overnight; native enzyme count = 100%
E. coli RNA polymerase, sequence (P0A8T7 whole entry): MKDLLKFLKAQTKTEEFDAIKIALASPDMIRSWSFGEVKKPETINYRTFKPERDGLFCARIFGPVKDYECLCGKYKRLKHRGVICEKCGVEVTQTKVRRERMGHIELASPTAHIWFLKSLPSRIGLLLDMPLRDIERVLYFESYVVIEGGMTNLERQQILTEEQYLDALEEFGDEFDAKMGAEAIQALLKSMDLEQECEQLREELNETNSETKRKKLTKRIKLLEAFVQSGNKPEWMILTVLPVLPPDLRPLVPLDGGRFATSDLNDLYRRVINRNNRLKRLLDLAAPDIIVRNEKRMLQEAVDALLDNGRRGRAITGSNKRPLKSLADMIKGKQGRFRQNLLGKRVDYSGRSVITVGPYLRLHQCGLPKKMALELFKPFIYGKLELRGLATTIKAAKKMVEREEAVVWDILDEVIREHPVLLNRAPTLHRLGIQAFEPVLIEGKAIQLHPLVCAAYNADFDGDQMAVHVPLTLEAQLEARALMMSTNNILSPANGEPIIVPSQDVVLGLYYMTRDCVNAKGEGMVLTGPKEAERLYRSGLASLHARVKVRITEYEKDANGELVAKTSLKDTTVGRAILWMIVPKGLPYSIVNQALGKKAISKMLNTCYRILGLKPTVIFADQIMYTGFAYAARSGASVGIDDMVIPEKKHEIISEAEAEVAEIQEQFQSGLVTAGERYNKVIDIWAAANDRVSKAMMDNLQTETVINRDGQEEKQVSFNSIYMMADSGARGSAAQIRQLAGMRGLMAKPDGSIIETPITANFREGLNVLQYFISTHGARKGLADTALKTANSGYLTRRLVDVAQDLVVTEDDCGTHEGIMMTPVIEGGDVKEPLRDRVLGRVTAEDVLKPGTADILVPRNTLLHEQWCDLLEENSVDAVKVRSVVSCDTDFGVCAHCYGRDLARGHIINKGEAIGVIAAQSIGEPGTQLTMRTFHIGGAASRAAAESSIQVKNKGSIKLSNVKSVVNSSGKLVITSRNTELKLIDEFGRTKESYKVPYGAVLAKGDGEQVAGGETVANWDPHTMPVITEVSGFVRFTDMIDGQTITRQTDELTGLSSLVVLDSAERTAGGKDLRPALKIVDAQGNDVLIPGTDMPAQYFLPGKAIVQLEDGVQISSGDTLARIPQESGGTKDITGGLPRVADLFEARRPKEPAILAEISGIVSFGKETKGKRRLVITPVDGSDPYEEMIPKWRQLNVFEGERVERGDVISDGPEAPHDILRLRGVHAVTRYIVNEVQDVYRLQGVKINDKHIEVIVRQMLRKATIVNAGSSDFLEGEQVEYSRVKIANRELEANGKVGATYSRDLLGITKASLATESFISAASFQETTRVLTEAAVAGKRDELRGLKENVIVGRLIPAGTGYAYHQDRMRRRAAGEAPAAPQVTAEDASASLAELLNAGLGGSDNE
E. coli RNA polymerase, sequence (P0A8V2 whole entry partner): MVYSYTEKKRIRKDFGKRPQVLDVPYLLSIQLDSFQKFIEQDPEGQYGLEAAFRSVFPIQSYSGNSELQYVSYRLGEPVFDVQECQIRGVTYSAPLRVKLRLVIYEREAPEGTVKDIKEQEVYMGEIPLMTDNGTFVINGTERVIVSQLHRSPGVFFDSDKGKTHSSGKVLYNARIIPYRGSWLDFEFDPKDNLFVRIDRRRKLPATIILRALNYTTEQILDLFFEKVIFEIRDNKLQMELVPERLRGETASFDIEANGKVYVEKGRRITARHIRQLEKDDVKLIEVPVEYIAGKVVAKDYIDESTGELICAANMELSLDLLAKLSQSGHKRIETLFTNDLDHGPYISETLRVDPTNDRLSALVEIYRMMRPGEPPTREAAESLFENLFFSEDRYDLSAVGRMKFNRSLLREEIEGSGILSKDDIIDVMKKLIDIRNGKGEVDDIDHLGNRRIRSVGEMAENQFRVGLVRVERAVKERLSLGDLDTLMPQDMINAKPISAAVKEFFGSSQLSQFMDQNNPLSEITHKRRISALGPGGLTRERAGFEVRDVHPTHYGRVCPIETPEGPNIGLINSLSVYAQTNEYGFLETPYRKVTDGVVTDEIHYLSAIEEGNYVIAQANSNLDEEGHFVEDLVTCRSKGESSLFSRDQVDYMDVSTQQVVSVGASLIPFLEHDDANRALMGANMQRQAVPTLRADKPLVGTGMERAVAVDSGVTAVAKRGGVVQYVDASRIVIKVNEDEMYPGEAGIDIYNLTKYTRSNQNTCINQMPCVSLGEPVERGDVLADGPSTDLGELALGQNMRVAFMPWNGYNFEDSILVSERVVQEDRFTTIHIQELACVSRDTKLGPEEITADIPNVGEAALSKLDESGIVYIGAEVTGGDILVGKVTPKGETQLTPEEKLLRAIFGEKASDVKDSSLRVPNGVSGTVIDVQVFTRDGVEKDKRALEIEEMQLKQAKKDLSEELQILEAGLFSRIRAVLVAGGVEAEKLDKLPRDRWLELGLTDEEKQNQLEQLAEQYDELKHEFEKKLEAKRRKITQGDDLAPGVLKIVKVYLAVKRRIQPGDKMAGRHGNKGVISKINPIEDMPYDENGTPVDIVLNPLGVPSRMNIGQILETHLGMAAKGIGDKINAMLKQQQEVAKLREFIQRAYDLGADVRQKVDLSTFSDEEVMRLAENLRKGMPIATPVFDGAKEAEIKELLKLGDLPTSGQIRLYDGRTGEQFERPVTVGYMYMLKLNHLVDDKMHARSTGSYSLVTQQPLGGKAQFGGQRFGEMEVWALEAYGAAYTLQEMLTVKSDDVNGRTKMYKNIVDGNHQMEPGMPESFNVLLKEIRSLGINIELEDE
E. coli RNA polymerase, sequence (P0A7Z4 whole entry partner): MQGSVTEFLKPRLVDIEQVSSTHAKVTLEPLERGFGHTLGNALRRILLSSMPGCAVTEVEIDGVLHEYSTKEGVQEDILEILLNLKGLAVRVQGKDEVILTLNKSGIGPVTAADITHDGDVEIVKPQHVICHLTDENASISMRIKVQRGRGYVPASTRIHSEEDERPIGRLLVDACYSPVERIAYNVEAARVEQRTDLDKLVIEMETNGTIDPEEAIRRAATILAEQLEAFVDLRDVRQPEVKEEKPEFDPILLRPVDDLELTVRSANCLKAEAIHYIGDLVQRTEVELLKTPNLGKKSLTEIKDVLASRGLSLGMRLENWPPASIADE
E. coli RNA polymerase, sequence (P00579 whole entry partner): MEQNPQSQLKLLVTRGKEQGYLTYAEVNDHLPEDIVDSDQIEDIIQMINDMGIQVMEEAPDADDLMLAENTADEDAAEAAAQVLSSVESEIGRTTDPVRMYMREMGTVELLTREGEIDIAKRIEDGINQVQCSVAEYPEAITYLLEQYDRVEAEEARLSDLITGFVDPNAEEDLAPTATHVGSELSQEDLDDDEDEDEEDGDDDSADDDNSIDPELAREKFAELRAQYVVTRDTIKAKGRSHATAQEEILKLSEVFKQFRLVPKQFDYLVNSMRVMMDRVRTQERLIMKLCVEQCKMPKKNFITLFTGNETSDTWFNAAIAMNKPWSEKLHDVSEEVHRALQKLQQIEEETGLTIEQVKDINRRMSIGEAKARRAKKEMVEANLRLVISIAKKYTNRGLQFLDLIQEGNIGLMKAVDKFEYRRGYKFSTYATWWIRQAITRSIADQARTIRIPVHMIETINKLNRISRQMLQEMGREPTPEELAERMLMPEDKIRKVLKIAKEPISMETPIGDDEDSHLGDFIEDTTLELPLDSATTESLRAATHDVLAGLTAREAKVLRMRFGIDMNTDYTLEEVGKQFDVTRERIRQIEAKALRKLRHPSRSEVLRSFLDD
Protocol: In a typical experiment, the course of transcription of calf thymus DNA by E. coli RNA polymerase was monitored in the presence and absence of the redox system 3. The enzyme aliquot after admixing with 3 was incubated for 15 minutes and then dialyzed overnight. A general transcription assay was then carried out in a medium, which contained ^3H UTP in addition to other nucleotides. The amount of radioactive UTP (uridine triphaspate) incorporated in the transcribed RNA was monitored by scintillation counter and the count, when compared to that obtained on using native enzyme gave the percentage loss of activity.
A mixture containing 0.8 μM solution of 3 (5 μL from 8 μM stock in methanol) and 0.4 μM of E. coli RNA polymerase (5 μl from 4 μM stock) in 1×transcription buffer ^a (5 μL) and 35 μL of milliQ water was incubated for 15 min, and dialysed ^b overnight, 4×Transcription assay mixture ^c (10 μL) was diluted with 10 μL of milliQ water and admixed with 20 μL of treated and dialyzed enzyme. The mixture was incubated for 20 minutes and spotted on to a DE81 filter paper strip ^d, which was pre-coated with EDTA to arrest further transcription. The filter paper strips were allowed to air dry for three hours, washed successively with 5% Na2HPO4 solution (3×200 mL, 10 min. each), distilled water (2×200 mL, 5 min. each) and then with ethanol (2×75 mL). […]

Q: What does the source list for `COC(=O)C(Cc1cnc[nH]1)n1sc2ccccc2c1=O` [compound 3, benziso-N(L-histidine methylester)-thiazolone]?
A: stability [1]: stable at normal conditions; activity compared to the native enzyme [2]: 53%; inhibition of activity [2]: 47%
